Results published in article PMC11079024, “Identification of a family of species-selective complex I inhibitors as potential anthelmintics” (Nature Communications, 2024).
pIC50: −log10 of the molar value. Several values for one entry are separate records, joined by “and”; a condition that tells them apart may be missing. Identical values can stand only once. Like-named read-outs stand apart in the source and are kept apart here.

Assays:
[1] = tested on: P. hermaphrodita complex I; assay: In vitro complex I activity assay, P. hermaphrodita mitochondria; assay type: biochemical, Phasmarhabditis hermaphrodita; settings: purified mitochondria
Experimental: (§1) Mitochondria were isolated from the following free-living nematode strains: C. elegans—N2, CB3474, ECA882, ECA917, ECA1075, ECA1080; C. briggsae—AF16; P. pacificus—PS312; and P. hermaphrodita—B178. With the exception of the P. hermaphrodita strain B178, adult worms of each strain were grown in bulk through liquid culture to obtain mitochondria in sufficient quantities. Due to poor growth in liquid media, mixed stage populations of P. hermaphrodita were washed off and collected from NGM plates seeded with OP50. The isolation of mitochondria from all free-living nematode strains followed the protocol previously outlined in Burns et al.[24]. In brief, a 1 L saturated culture of E. coli HB101 was concentrated 20-fold in 50 mL complete S-medium. ~500,000 L1 worms synchronized from an embryo preparation performed the day prior were added to the S-media/HB101 suspension and grown to adulthood over the course of 3.5 days at 20 °C with shaking at 165 rpm. Following growth, worms were collected in 10 ×15 mL conical tubes and washed 7 times in M9 buffer. Worm suspensions were then combined into a single 15 mL conical tube and diluted to a final volume of 15 mL with M9 buffer. 1 mL aliquots of worm suspension were then distributed to 15 × 1.5 mL screw-cap microcentrifuge tubes and were pelleted at 500 g for 1 min. Excess M9 was aspirated without disturbing the worm pellet. 600 μL ice-cold isolate buffer A (250 mM sucrose, 10 mM Tris (pH 7.5), 1 mM EDTA, 1 mM PMSF (freshly prepared)) and 300 μL cold glass beads were then added to each tube. Tubes were incubated on ice for 10 min, and the worms were then lysed by bead beating (6 x 30 s, with 1 min cooling intervals). Tubes containing worm lysate were centrifuged at 1,000 g for 10 min at 4 °C and the supernatant was transferred to 15 new microcentrifuge tubes on ice. The tubes were centrifuged a second time at 1,000 g for 10 min at 4 °C and the supernatant was once again transferred to 15 new microcentrifuge tubes on ice. These tubes were then centrifuged at 16,000 g for 10 min at 4 °C. The resulting mitochondrial pellet was washed twice by re-suspension in 300 μL of ice-cold isolate buffer B (250 mM sucrose, 10 mM Tris (pH 7.5), 1 mM EDTA). Following the final wash, isolation buffer was aspirated from each tube and the pellets were flash-frozen in ethanol/dry ice and stored at −80 °C until needed.
(§2) The enzymatic activities of individual ETC complexes (I-IV) were assessed spectrophotometrically in isolated mitochondria using a Varioskan LUX Multimode plate reader (ThermoFisher Scientific). Mitochondrial pellets previously isolated were thawed on ice and resuspended in ice-cold isolation buffer (250 mM sucrose, 10 mM Tris (pH 7.5), 1 mM EDTA). The BCA assay (Walker, 1994) was used to quantify the protein concentration of mitochondria suspensions; solutions were diluted to a concentration of 0.2 mg/mL for use in all assays. For the complex I assay, mitochondria pellets were freeze-thawed on ice three times to increase enzyme accessibility. […] 20 μL mitochondria suspension was then added/mixed with a pipette to initiate the reaction. Immediately following the addition of mitochondria, absorbance was measured (complex I and II: 600 nm; complex III and IV: 550 nm) in 30 s intervals over 15 min. Enzymatic activity was determined in each reaction by plotting absorbance versus time and calculating the slope of the curve during the initial linear phase of the reaction. […] Percent activity of each complex was calculated by dividing the enzyme-specific activity of each well by the enzyme-specific activity of the corresponding solvent controls.
(§3) Chemical solutions were prepared in complex I assay buffer composed of 25 mM KPi buffer (pH 7.5), 3 mg/mL bovine serum albumin (BSA), 80 μM NADH, 60 μM decylubiquinone, 160 μM DCIP, 2 μM antimycin A and 2 mM KCN. […]

P. pacificus complex I = P. pacificus complex I (Pristionchus pacificus, UniProt A0A454XZ18+A0A8R1Z3U8+A4UAP3); assay: In vitro complex I activity assay, P. pacificus mitochondria; assay type: biochemical
Experimental: as §1, §2, §3

[2] = P. pacificus mitochondria, Mean, read-out: in vitro complex I activity relative to solvent control
[3] = P. pacificus mitochondria, single replicate, read-out: in vitro complex I activity relative to solvent control
[4] = dose 0.4 µM, individual replicate (Rep)
[5] = dose 0.8 µM, individual replicate (Rep)
[6] = dose 3.1 µM, individual replicate (Rep)
[7] = dose 6.3 µM, individual replicate (Rep)
[8] = dose 12.5 µM, individual replicate (Rep)
[9] = dose 25 µM, individual replicate (Rep)
[10] = dose 50 µM, individual replicate (Rep)

Cc1ccccc1OCCCCn1cnc2ccccc21 [Compound 7732524]
pIC50 [1]: 7.16
remaining activity at 0.0001 µM (P. pacificus complex I; [2]): 87.6%
remaining activity at 0.0001 µM (P. pacificus complex I; [3]): 93.9%
remaining activity at 0.0005 µM (P. pacificus complex I; P. pacificus mitochondria, 0.0005 µM, Mean, read-out: in vitro complex I activity relative to solvent control): 88.6%
remaining activity at 0.001 µM (P. pacificus complex I; P. pacificus mitochondria, 0.001 µM, Mean, read-out: in vitro complex I activity relative to solvent control): 75.8%
remaining activity at 0.0025 µM (P. pacificus complex I; P. pacificus mitochondria, 0.0025 µM, Mean, read-out: in vitro complex I activity relative to solvent control): 97.4%
remaining activity at 0.005 µM (P. pacificus complex I; P. pacificus mitochondria, 0.005 µM, Mean, read-out: in vitro complex I activity relative to solvent control): 100%
remaining activity at 0.013 µM (P. pacificus complex I; P. pacificus mitochondria, 0.013 µM, Mean, read-out: in vitro complex I activity relative to solvent control): 85.8%
remaining activity at 0.025 µM (P. pacificus complex I; P. pacificus mitochondria, 0.025 µM, Mean, read-out: in vitro complex I activity relative to solvent control): 73.7%
remaining activity at 0.063 µM (P. pacificus complex I; P. pacificus mitochondria, 0.063 µM, Mean, read-out: in vitro complex I activity relative to solvent control): 46.6%
remaining activity at 0.125 µM (P. pacificus complex I; P. pacificus mitochondria, 0.125 µM, Mean, read-out: in vitro complex I activity relative to solvent control): 24.7%
remaining activity at 0.313 µM (P. pacificus complex I; P. pacificus mitochondria, 0.313 µM, Mean, read-out: in vitro complex I activity relative to solvent control): 8.23%
remaining activity at 0.625 µM (P. pacificus complex I; P. pacificus mitochondria, 0.625 µM, Mean, read-out: in vitro complex I activity relative to solvent control): 11.5%
remaining activity at 1.5 µM (P. pacificus complex I; P. pacificus mitochondria, 1.5 µM, Mean, read-out: in vitro complex I activity relative to solvent control): 9.66%
remaining activity at 3 µM (P. pacificus complex I; P. pacificus mitochondria, 3 µM, Mean, read-out: in vitro complex I activity relative to solvent control): 9.9%
remaining activity at 15 µM (P. pacificus complex I; [2]): 16.2%
remaining activity at 15 µM (P. pacificus complex I; [3]): 15.9%
remaining activity at 37.5 µM (P. pacificus complex I; P. pacificus mitochondria, 37.5 µM, Mean, read-out: in vitro complex I activity relative to solvent control): 16.1%
remaining activity at 75 µM (P. pacificus complex I; P. pacificus mitochondria, 75 µM, Mean, read-out: in vitro complex I activity relative to solvent control): 7.58%
pIC50 (P. pacificus complex I; purified mitochondria): 7.25

C=C(C)[C@H]1Cc2c(ccc3c2O[C@@H]2COc4cc(OC)c(OC)cc4[C@@H]2C3=O)O1 [Rotenone, reference compound]
HEK293 viability (HEK293 cells; [4]): 0.393 and 0.409 and 0.194
HEK293 viability (HEK293 cells; [5]): 0.340 and 0.322
HEK293 viability (HEK293 cells; [6]): 0.488 and 0.455
HEK293 viability (HEK293 cells; [7]): 0.380 and 0.286
HEK293 viability (HEK293 cells; [8]): 0.265
HEK293 viability (HEK293 cells; [9]): 0.242 and 0.200
HEK293 viability (HEK293 cells; [10]): 0.196 and 0.203

Cc1cc(O)c2c(c1)O[C@@]1(C)CC[C@H]3C(C)(C)CCC[C@]34CO[C@@H]2[C@H]41 [Siccanin]
HEK293 viability (HEK293 cells; [4]): 0.916
HEK293 viability (HEK293 cells; [5]): 0.884
HEK293 viability (HEK293 cells; [6]): 0.838 and 0.744
HEK293 viability (HEK293 cells; [7]): 0.943 and 0.986
HEK293 viability (HEK293 cells; [8]): 0.861 and 0.895 and 0.672
HEK293 viability (HEK293 cells; [9]): 0.599 and 0.475 and 0.289
HEK293 viability (HEK293 cells; [10]): 0.058 and 0.057

O=C(NCCc1ccc(Cl)cc1)c1ccccc1C(F)(F)F [Wact-11]
HEK293 viability (HEK293 cells): 0.997
HEK293 viability (HEK293 cells; dose 0.4 µM, Mean of replicates): 0.929
HEK293 viability (HEK293 cells; [4]): 0.886 and 0.902
HEK293 viability (HEK293 cells; dose 0.8 µM, Mean of replicates): 0.971
HEK293 viability (HEK293 cells; [5]): 0.916
HEK293 viability (HEK293 cells; dose 6.3 µM, Mean of replicates): 0.986
HEK293 viability (HEK293 cells; [7]): 0.982 and 0.975
CC50 (HEK293 cells; read-out: HEK293 Cell Viability Assay LC50, 2 days exposure): > 50000 nM
